Data published in paper PMC9698716, “From Serendipity to Rational Identification of the 5,6,7,8-Tetrahydrobenzo[4,5]thieno[2,3-d]pyrimidin-4(3H)-one Core as a New Chemotype of AKT1 Inhibitors for Acute Myeloid Leukemia” (Pharmaceutics, 2022).

How the values were obtained:
OCI-AML2 = test: Cell growth, viable cell count by trypan blue exclusion; format: cell-based, human; details: OCI-AML2, 5 µM, at 48 and 72 h
cleaved-PARP = test: Western blot of apoptosis marker in AML cell lines; format: cell-based, human; details: 5 µM, 48 h
Experimental: Immunoblotting was conducted as described previously. Briefly, fresh cell pellets (0.2–0.5 × 10^6/test for AML cell lines) were dissolved directly in 30–60 μL of Laemmli sample buffer 1× (1.5 M Tris-HCl pH 6.8, glycerol, β-mercaptoethanol, SDS, bromophenol blue) and boiled at 95 °C for 5 min. The proteins were separated by SDS-polyacrylamide gel electrophoresis (SDS-PAGE) on Precast 4–15% gradient gels (Biorad, Hercules, CA, USA) transferred onto nitrocellulose membranes (GE Healthcare, Piscataway, NJ, USA) and probed with specific primary antibodies followed by horseradish peroxidase-conjugated secondary antibodies (GE Healthcare Lifesciences). The polypeptides were visualized using enhanced chemiluminescence (Luminata Crescendo, Merck Millipore, Burlington, MA, USA) according to the manufacturer’s instructions. The bands were visualized using the Biorad Chemidoc and the images were processed using the image lab software (Biorad) and Adobe Photoshop (Ps CC 2019). β-actin expression levels were used as a control for protein loading, as indicated. […]

IMS-M2 = test: Cell growth, viable cell count by trypan blue exclusion; format: cell-based, human; details: IMS-M2, 5 µM, at 48 and 72 h
[1] = Intrinsic fluorescence assay; format: physicochemical; details: excitation/emission 485–535 nm, AKT1 assay buffer, 2 h 37 °C
Experimental: Compound T126 was serially diluted in 384-well black plates with Hepes 100 mM, DMSO 4%, Brij 0.003%, Tween 20 0.004%, MgCl2 10 mM, at a pH = 7.5 and incubated for 2 h at 37 °C. After the incubation time the intensity of fluorescence (λexc: 485 nm; λemm: 535 nm) was detected in a Tecan M1000 Pro.

[2] = tested on: normal donor CD34+ hematopoietic stem/progenitor cells (HSPC); test: Colony forming unit (CFU) assay; format: cell-based, human; details: 14 days
Excerpt: The human AML cell lines, OCI-AML3 (carrying the NPM1 gene mutation A and the DNMT3A^R882C mutation), IMS-M2 (carrying the NPM1 gene mutation A), OCI-AML2 (with the wild-type NPM1 and DNMT3A^R635W mutation), and SKM-1 and MOLM-13 (with the wild-type NPM1) were previously reported. The cell lines were purchased from the Deutsche Sammelung von Mikroorganismen und Zellkulturen (DSMZ) (Braunschweig, Germany) cell bank and maintained according to the vendors’ instructions. Briefly, cultured cells were split every 3 days and maintained in an exponential growth phase. The cell lines were tested for mycoplasma using the Universal Mycoplasma Detection Kit (ATCC). The OCI-AML3 were grown in α-MEM supplemented with 20% fetal bovine serum, 100 U/mL penicillin, and 100 μg/mL streptomycin (P/S), and all other cell lines were cultured in RPMI and supplemented with a 10–20% fetal bovine serum and 100 U/mL penicillin and 100 μg/mL streptomycin. The cells were kept at 37 °C in a 5% CO2 incubator. Prior to screening, the appropriate cell concentration for all cell lines was determined. […] The metabolic cell activity was measured by using the CellTiter Blue proliferation agent (Roche) as described in the manufacturer’s procedure. […] The fluorescence intensity was measured using the automated Tecan plate reader (Tecan Group Ltd., Männedorf, Switzerland) at an excitation/emission wavelength of 531/572 nm. The fluorescence readouts were reported as relative fluorescence units (RFU) and read on a luminescence plate reader (Infinite 200 Pro, Tecan, CA, USA). […] The results are expressed as mean ± standard error of the mean (SEM). […]
For the CFU assay, 500 CD34+ human cells were plated in a MethoCult™ enriched medium (see Table S4) on a 6-well plate (untreated cells versus T126 at 1, 2.5, and 5 µM, each condition in triplicate). The plates were then incubated for 14 days at 37 °C (5% CO2), and the images were captured and the colonies counted by STEMvision™. […]

## O=c1[nH]c(-c2ccc(O)c(O)c2)nc2sc3c(c12)CCCC3 [T126]
OCI-AML2
  cell growth inhibition: significant cell growth inhibition
cleaved-PARP
  cleaved-PARP (marker of apoptosis): detected
IMS-M2
  cell growth inhibition: significant cell growth inhibition
[1]
  intrinsic fluorescence: not fluorescent
[2]; 1 µM
  colony forming ability of human CD34+ HSPC: did not inhibit
[2]; 2.5 µM
  colony forming ability of human CD34+ HSPC: did not inhibit
[2]; 5 µM
  decrease of clonogenic efficiency compared to untreated control: about 20%
